Where “and” joins values, the source holds several entries; their conditions need not be identical. Equal values may be shown once.
Key:
[1] = biological target: T1, cardiac muscle myosin S2 mutant peptide E924K (MYH7) (Homo sapiens, UniProt P12883, E924K); assay: FRET of E924K mutant cardiac myosin S2 peptide dimer with stabilizer; type: binding
T1 construct: cardiac muscle myosin S2 peptides region 921 to 939; host or cells: chemical synthesis
From the text: This mutation also causes mechanical instability and unstable coiled coil. Sequence of this mutation was obtained using PDB. A 19 residue peptide of this region was chemically synthesized. Generated amino acid sequence used is as follow: • E924K: NH2-[…]—COOH (SEQ ID NO:9)
(§1) Resonance energy probes (donor and acceptor) were covalently attached to synthetic myosin S2 peptides of cardiac muscle, E930del cardiac muscle, E924K cardiac muscle, smooth muscle, and skeletal muscle (Aboonasrshiraz, N., 2020).
(§2) Acceptor probe was conjugated to muscle myosin S2 peptides at N-terminus. Muscle myosin S2 peptides were dissolved in 20 mM HEPES buffer at pH 8.0. And FITC was dissolved in few drops of N, N dimethyl formamide. Lastly, FITC and muscle myosin S2 peptide was reacted together in 1 to 1 molar ratio and was let to react for 120 minutes at room temperature. The FITC conjugated S2 peptides were purified using […]. […]
(§3) In FRET assay, Fluorescein Isothiocyanate (FITC) functioned as fluorescent acceptor probe and Terbium Diethylene Triamine Pentaacetic Acid-Cytosine (Lanthanide-DTPA-Cytosine) functioned as donor probe. […] Lifetime of donor probe was measured in milliseconds.
E924K and Edel930; the myosin S2 HCM mutants, form unstable dimers. […] The calculated separation distance in presence of the stabilizer peptide was 3.65 nm. […]

[2] = biological target: T2, cardiac muscle myosin S2 peptide wild-type (MYH7) (Homo sapiens, UniProt P12883); assay: FRET of cardiac muscle myosin S2 peptide dimer with anti-S2 peptides; type: binding; conditions: Cardiac peptide with Stabilizer
T2 construct: The 19 residue peptide was chemically synthesized; purchased BioSynthesis; Inc; host or cells: chemical synthesis
From the text: A small region of myosin subfragment 2 (S2) region of human β-cardiac myosin (MYH7) was selected to be synthesized by BioSynthesis; Inc. The region was selected based on mutations found within this region causing Familial hypertrophic cardiomyopathy (FHC) (Richard et al., 2003). The mutations are located within proximal region of myosin S2 specifically region of 921-939 (FIG. 7). Myosin S2 is an intrinsically unstable coiled coil and the sequence of this region was acquired from Protein Data Bank (PDB). The 19 residue peptide was chemically synthesized. Generated amino acid sequence used is as follow:
Chelate-lanthanide complex was utilized as the donor probe, which is composed of a lanthanide, an antenna, and a chelate. Organic chromophore antenna ([…]) will absorb a photon of light, and it will transfer energy to lanthanide ion (terbium III). This probe excites at 248 nm and emits at 547 nm.
Fluorescein was used as the acceptor probe. […]
In this experiment, luminescence spectrometer, AMNICO-BOWMAN SERIES 2 SPECTROMETER™, was used to detect resonance energy transfer. […] Emission signal generated from decay of molecules was detected by a photomultiplier tube, which contains proper color filters to detect the emitted photons.
FRET measured the dissociation constant (binding affinity) between the myosin S2 dimers and the anti-S2 peptides. […]

[3] = biological target: T3, cardiac muscle myosin S2 mutant peptide E930del (MYH7) (Homo sapiens, UniProt P12883, DEL930-930); assay: FRET of E930del mutant cardiac myosin S2 peptide dimer with stabilizer; type: binding
T3 construct: cardiac muscle myosin S2 peptides region 921 to 939; host or cells: chemical synthesis
From the text: This mutation cause mechanical instability and unstable coiled coil. Again the sequence of this mutation was obtained using PDB. An 18 residue peptide of this region was chemically synthesized. Generated amino acid sequence used is as follow: • E930del: NH2-[…]—COOH (SEQ ID NO:8)
as §1, §2, §3
In FRET assay, like E924K, Edel930 was treated with different concentrations of the stabilizer. […] Calculated separation distance in presence of the stabilizer peptide was 3.38 nm.

[4] = tested on: rabbit skeletal myofibrils; assay: Myofibrillar contractility assay (incubated myofibrils, 1 mM ATP); type: biochemical

Row | SMILES | TD (donor lifetime without acceptor) [1] | TD (donor lifetime without acceptor) [2] | TD (donor lifetime without acceptor) [3] | concentration above which percentage contraction saturated [4] | Kd ([4]; from percentage contraction vs concentration, listed as destabilizer peptide, read-out: binding efficiency (Kd) to myofibrils) | maximum percentage contraction in myofibrils ([4]; in presence of destabilizer peptide) | EC50 ([4]; read-out: effective concentration on percentage of contraction in myofibrils) [nM]
1 | C[C@H](NC(=O)[C@H](CCCCN)NC(=O)[C@H](Cc1ccccc1)NC(=O)[C@H](CCCCN)NC(=O)[C@H](CCCCN)NC(=O)[C@H](CCCCN)NC(=O)[C@H](CCCCN)NC(=O)[C@H](CCCCN)NC(=O)[C@H](CCCCN)NC(=O)[C@H](CCCCN)NC(=O)[C@@H](N)CCCCN)C(=O)N[C@@H](CCCCN)C(=O)N[C@@H](CCCCN)C(=O)N[C@@H](CCCCN)C(=O)N[C@@H](CCCCN)C(=O)N[C@@H](CCCCN)C(=O)N[C@@H](CCCCN)C(=O)O [Stabilizer] | 1.94E−03 | 1.73E−03 | 1.89E−03 | – | – | – | –
2 | CSCC[C@H](NC(=O)[C@H](CCC(=O)O)NC(=O)[C@H](CCCNC(=N)N)NC(=O)[C@H](CCC(=O)O)NC(=O)[C@H](CC(=O)O)NC(=O)[C@H](CCC(=O)O)NC(=O)[C@H](CC(C)C)NC(=O)[C@H](CCCNC(=N)N)NC(=O)[C@H](CCC(=O)O)NC(=O)[C@H](CC(N)=O)NC(=O)[C@H](CCSC)NC(=O)[C@@H](N)CCC(=O)O)C(=O)N[C@@H](CCCCN)C(=O)N[C@@H](C)C(=O)N[C@@H](CCC(=O)O)C(=O)N[C@@H](CC(C)C)C(=O)N[C@H](C(=O)N[C@@H](C)C(=O)N[C@@H](CCCCN)C(=O)O)[C@@H](C)O [Destabilizer] | – | – | – | above 40 nM | 7.88 nM and 7.8 nM | 43% and 41% | < 10

Reference: US12617818B2, “Compositions and methods for modulating myosin subfragment-2 coiled coil stability and methods for using them” (UNIVERSITY OF NORTH TEXAS, priority 2020, dated 2026)
